These are literature values, as cited in EP2517696A1, “Extended release memantine tablet” (Ali Raif Ilaç Sanayi ve Ticaret Anonim Sirketi, priority 2011, dated 2012).

The conditions of series [1]: high dissolution and permeability.
For series [2] the following is noted: in vivo.

Structures can show the parent of a compound that is named as a salt.

`CC12CC3CC(C)(C1)CC(N)(C3)C2` [Memantine HCl, 3,5 dimethyl-1-adamantamine hydrochloride]: the BCS class result in series [1] is listed as “BCS 1 class”. Further, the absolute bioavailability in series [2] is listed as 100%.
